Data reported in US10440955B2, “Methods comprising a biocidal polyamine” (Curza Global, LLC, priority 2013, dated 2019).
Structures can show the parent of a compound that is named as a salt.

Legend:
A. baumannii biofilms = assay: EBEC, high number biofilms on PEEK membranes, 10^9 to 10^2 CFU/PEEK membrane in 24 hours; assay type: cell-based, Acinetobacter baumannii
Description: (§1) In addition to determining the MIC and the MBEC of polyamine compounds against planktonic bacteria and low number biofilms, our group wanted to determine the efficacy of polyamine compounds against high number biofilms. To do so, biofilms were grown on the surface of polyetheretherketone (PEEK) membranes using a membrane biofilm reactor. This reactor is similar to the CDC biofilm reactor, but rather than growing biofilms on coupon surfaces, the reactor was modified to hold PEEK membranes. In short, to grow biofilms within this system, 500 mL of brain heart infusion (BHI) broth were inoculated with 1 mL of a 0.5 McFarland. The reactor was placed on a hot plate set at 34° C. and the bacteria were grown under batch conditions for 24 hours. Following this protocol, biofilms typically grow to 10^9 CFU/PEEK membrane. […] A solution of 10% BHI was then flowed through the reactor at a rate of 6.94 mL/min for an additional 24 hours. PEEK membranes were then removed and placed into 2 mL of CAMHB that contained a desired concentration of polyamine compound or antibiotic. The EBEC was defined as the concentration of antimicrobial required to reduce a biofilm from approximately 10^9 CFU/PEEK membrane to approximately 10^2 CFU/PEEK membrane in a 24-hour period.
(§2) In addition to determining the MIC and the MBEC of compounds against planktonic bacteria and low number biofilms, the efficacy of the compounds of the invention against high number biofilms is determined. To do so, biofilms are grown on the surface of PEEK membranes using a membrane biofilm reactor (Williams, D. L., Haymond, B. S. & Bloebaum, R. D. Use of delrin plastic in a modified CDC biofilm reactor. Res J Microbiol 6, 425-429 (2011); Williams, D. L., Woodbury, K. L., Haymond, B. S., Parker, A. E. & Bloebaum, R. D. A modified CDC biofilm reactor to produce mature biofilms on the surface of PEEK membranes for an in vivo animal model application. Curr Microbiol 62, 1657-1663 (2011); Williams, D. L. et al., In Vivo Efficacy of a Silicone—Cationic Steroid Antimicrobial Coating to Prevent Implant-Related Infection. Biomaterials 33, 8641-8656 (2012); Williams, D. L. et al., Experimental model of biofilm implant-related osteomyelitis to test combination biomaterials using biofilms as initial inocula. J Biomed Mat Res A 100, 1888-1900 (2012)). This reactor is similar to the CDC biofilm reactor, but rather than growing biofilms on coupon surfaces, the reactor was modified to hold PEEK membranes. In short, to grow biofilms within this system, 500 mL of brain heart infusion (BHI) broth is inoculated with 1 mL of a 0.5 McFarland. The reactor is placed on a hot plate set at 34° C. and the bacteria grown under batch conditions for 24 hours. A solution of 10% BHI will then be flowed through the reactor at a rate of 6.94 mL/min for an additional 24 hours. Following this protocol, biofilms typically grow to 10^9 CFU/PEEK membrane. PEEK membranes is removed and placed into 2 mL of CAMHB that contain a desired concentration of the test compound. The EBEC is defined as the concentration of antimicrobial required to reduce a biofilm from approximately 10^9 CFU/PEEK membrane to approximately 10^2 CFU/PEEK membrane in a 24-hour period.
EBEC data were collected to determine the efficacy of CZ-52, CZ-58 and traditional antibiotics against high number biofilms containing approximately 10^9 CFU grown on the surface of a polyetheretherketone (PEEK) membrane. […] In contrast, at 250 μg/mL CZ-52 was able to reduce MRSA biofilms by greater than 7 log10 units in a 24-hour period. Although the MIC of CZ-58 was lower against MRSA compared to A. baumannii, CZ-58 had greater activity against biofilms of A. baumannii than against MRSA biofilms in the EBEC assay. […] Although the MIC of CZ-58 was “high” compared to MICs of traditional antibiotics, the efficacy against biofilms was promising.

MRSA biofilms = assay: as above; assay type: cell-based, Staphylococcus aureus
Description: as §1, §2
EBEC data were collected to determine the efficacy of CZ-52, CZ-58 and traditional antibiotics against high number biofilms containing approximately 10^9 CFU grown on the surface of a polyetheretherketone (PEEK) membrane.

Compound | EBEC μg/mL (μM) A. baumannii (A. baumannii biofilms; Table 4) | EBEC μg/mL (μM) A. baumannii (A. baumannii biofilms; Table 4, value in parentheses) | EBEC μg/mL (μM) MRSA (MRSA biofilms; Table 4) | EBEC μg/mL (μM) MRSA (MRSA biofilms; Table 4, value in parentheses) | reduction of biofilms of MRSA (MRSA biofilms; at 25,000 μg/mL, 24-hour period)
NCCCNCCCNCc1ccccc1 [CZ-7, benzylnorspermidine] | >10,000 μg/mL | (>45,180) μM | >5,000 μg/mL | (>22,590) μM | 
NCCCNCCCNCc1cc(CNCCCNCCCN)cc(-c2ccccc2)c1 [CZ-58, N^1,N^1′-([1,1′-biphenyl]-3,5-diylbis(methylene))bis(N^3-(3-ammoniopropyl)propane-1,3-diaminium) chloride] | 400 µg/mL |  | 1,500 μg/mL |  | 
NCCCNCCCNCc1cccc(CNCCCNCCCN)c1 [CZ-25, N^1,N^1′-(1,3-phenylenebis(methylene))bis(N3-(3-ammoniopropyl)propane-1,3-diaminium) chloride] | ~7,500 μg/mL |  | >5,000 μg/mL |  | 
NCCCNCCCNCc1cc(CNCCCNCCCN)cc(CNCCCNCCCN)c1 [CZ-52, N^1,N^1′,N^1″-(benzene-1,3,5-triyltris(methylene))tris(N^3-(3-aminopropyl)propane-1,3-diamine), hydrochloride salt] | ~7,000 μg/mL | (~14,000) μM | 250 µg/mL | (500) μM | 
CN[C@H](CC(C)C)C(=O)N[C@H]1C(=O)N[C@@H](CC(N)=O)C(=O)N[C@H]2C(=O)N[C@H]3C(=O)N[C@H](C(=O)N[C@H](C(=O)O)c4cc(O)cc(O)c4-c4cc3ccc4O)[C@H](O)c3ccc(c(Cl)c3)Oc3cc2cc(c3O[C@@H]2O[C@H](CO)[C@@H](O)[C@H](O)[C@H]2O[C@H]2C[C@](C)(N)[C@H](O)[C@H](C)O2)Oc2ccc(cc2Cl)[C@H]1O [vancomycin, reference compound] |  |  | >>25,000 μg/mL |  | < 1 log10 unit
Polymyxin B sulfate [reference compound] | 1,000 μg/mL | (722) μM |  |  | 
